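Test compounds were applied to cells in 96-well plates for 48 hours at 5 doses. At the GI50, growth is halved. TGI is the concentration that stops growth completely.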
What was measured:
Assay in all cases: DTP human tumour cell line panel, 48 h
[1] = tested on: NCI-H522 lung
[2] = tested on: MALME-3M melanoma
[3] = tested on: UACC-257 melanoma
[4] = tested on: UO-31 renal
[5] = tested on: IGROV1 ovarian
[6] = tested on: K-562 leukemia
[7] = tested on: MDA-MB-231 breast
[8] = tested on: 786-0 renal
[9] = tested on: KM12 colon
[10] = tested on: SW-620 colon
[11] = tested on: OVCAR-3 ovarian
[12] = tested on: HCC-2998 colon
[13] = tested on: SNB-19 CNS
[14] = tested on: CCRF-CEM leukemia
[15] = tested on: COLO 205 colon
[16] = tested on: CAKI-1 renal
[17] = tested on: OVCAR-4 ovarian
[18] = tested on: SK-MEL-2 melanoma
[19] = tested on: MDA-MB-435
[20] = tested on: HT29 colon
[21] = tested on: LOX IMVI melanoma
[22] = tested on: SF-539 CNS
[23] = tested on: OVCAR-8 ovarian
[24] = tested on: SR leukemia
[25] = tested on: EKVX NSCLC
[26] = tested on: SK-MEL-5 melanoma
[27] = tested on: OVCAR-5 ovarian
[28] = tested on: NCI-H226 lung
[29] = tested on: SNB-75 CNS
[30] = tested on: MOLT-4 leukemia
[31] = tested on: PC-3 prostate
[32] = tested on: U251 CNS
[33] = tested on: NCI-H460 lung
[34] = tested on: DU-145 prostate
[35] = tested on: TK-10 renal
[36] = tested on: HOP-62 NSCLC
[37] = tested on: RPMI-8226 leukemia
[38] = tested on: HS 578T breast
[39] = tested on: HCT-116 colon
[40] = tested on: NCI/ADR-RES ovarian
[41] = tested on: NCI-H23 lung
[42] = tested on: M14 melanoma
[43] = tested on: SF-295 CNS
[44] = tested on: T-47D breast
[45] = tested on: HL-60(TB) leukemia
[46] = tested on: BT-549 breast
[47] = tested on: RXF 393 renal
[48] = tested on: UACC-62 melanoma
[49] = tested on: HOP-92 NSCLC
[50] = tested on: SN12C renal
[51] = tested on: SF-268 CNS
[52] = tested on: ACHN renal
[53] = tested on: A549 NSCLC
[54] = tested on: A498 renal
[55] = tested on: SK-MEL-28 melanoma
[56] = tested on: SK-OV-3 ovarian
[57] = tested on: HCT-15 colon
[58] = tested on: MCF7 breast

Molecule `Cc1ccc2c(n1)C(=O)C(Cl)=C(Nc1cccc(C(C)C)c1)C2=O` has a GI50 [1] of 2.25 µM, a TGI [1] of 5.6 µM and a GI50 [2] of 1.65 µM. For the same molecule, the TGI [2] was 3.18 µM, the GI50 [3] was 1.59 µM and the TGI [3] was 3.07 µM. For the same molecule, the GI50 [4] was 1.49 µM, the TGI [4] was 2.83 µM and the GI50 [5] was 1.56 µM. The TGI [5] was 3.1 µM, the GI50 [6] was 2.47 µM and the TGI [6] was > 100 µM. It also gave a GI50 [7] of 1.37 µM, a TGI [7] of 3.01 µM and a GI50 [8] of 2.18 µM. The TGI [8] was 5.44 µM, the GI50 [9] was 4.94 µM and the TGI [9] was 28.6 µM. For the same molecule, the GI50 [10] was 1.94 µM, the TGI [10] was 4.03 µM and the GI50 [11] was 0.617 µM. For the same molecule, the TGI [11] was 2.91 µM, the GI50 [12] was 3.95 µM and the TGI [12] was 13.7 µM. For the same molecule, the GI50 [13] was 3.23 µM, the TGI [13] was 13.6 µM and the GI50 [14] was 2.36 µM. It also gave a TGI [14] of 19.9 µM, a GI50 [15] of 3.33 µM and a TGI [15] of 12.1 µM. For the same molecule, the GI50 [16] was 1.88 µM, the TGI [16] was 6.22 µM and the GI50 [17] was 1.35 µM. For the same molecule, the TGI [17] was 2.64 µM, the GI50 [18] was 3.72 µM and the TGI [18] was 12.8 µM. It also gave a GI50 [19] of 1.71 µM, a TGI [19] of 3.16 µM and a GI50 [20] of 3.84 µM. For the same molecule, the TGI [20] was 31.4 µM, the GI50 [21] was 0.698 µM and the TGI [21] was 2.54 µM. The GI50 [22] was 1.71 µM, the TGI [22] was 3.15 µM and the GI50 [23] was 2.53 µM. For the same molecule, the TGI [23] was 8.97 µM, the GI50 [24] was 1.63 µM and the TGI [24] was > 100 µM. It also gave a GI50 [25] of 1.59 µM, a TGI [25] of 3.24 µM and a GI50 [26] of 1.67 µM. For the same molecule, the TGI [26] was 3.06 µM, the GI50 [27] was 2.17 µM and the TGI [27] was 4.55 µM. It also gave a GI50 [28] of 1.48 µM, a TGI [28] of 3.59 µM and a GI50 [29] of 1.4 µM. The TGI [29] was 3.19 µM, the GI50 [30] was 2.27 µM and the TGI [30] was > 100 µM. The GI50 [31] was 2.17 µM, the TGI [31] was 16.3 µM and the GI50 [32] was 2.94 µM. The TGI [32] was 11.1 µM, the GI50 [33] was 3.42 µM and the TGI [33] was 13.5 µM. For the same molecule, the GI50 [34] was 1.86 µM, the TGI [34] was 3.82 µM and the GI50 [35] was 4.67 µM. For the same molecule, the TGI [35] was 13.8 µM, the GI50 [36] was 2.7 µM and the TGI [36] was 10.8 µM. The GI50 [37] was 1.5 µM, the TGI [37] was 5.18 µM and the GI50 [38] was 2.29 µM. It also gave a TGI [38] of 6.16 µM, a GI50 [39] of 1.52 µM and a TGI [39] of 3.55 µM. The GI50 [40] was 2.49 µM, the TGI [40] was 9.13 µM and the GI50 [41] was 1.58 µM. It also gave a TGI [41] of 4.55 µM, a GI50 [42] of 2.94 µM and a TGI [42] of 10.1 µM. The GI50 [43] was 3.5 µM, the TGI [43] was 11.5 µM and the GI50 [44] was 1.61 µM. It also gave a TGI [44] of 4.15 µM, a GI50 [45] of 1.73 µM and a TGI [45] of 6.41 µM. The GI50 [46] was 2.45 µM, the TGI [46] was 10.8 µM and the GI50 [47] was 1.29 µM. The TGI [47] was 2.56 µM, the GI50 [48] was 2.05 µM and the TGI [48] was 4.64 µM. For the same molecule, the GI50 [49] was 1.76 µM, the TGI [49] was 3.58 µM and the GI50 [50] was 1.76 µM. It also gave a TGI [50] of 4.54 µM, a GI50 [51] of 3.17 µM and a TGI [51] of 34.6 µM. For the same molecule, the GI50 [52] was 1.69 µM, the TGI [52] was 3.12 µM and the GI50 [53] was 3.66 µM. For the same molecule, the TGI [53] was 14 µM, the GI50 [54] was 6.56 µM and the TGI [54] was 19.9 µM. For the same molecule, the GI50 [55] was 2.4 µM, the TGI [55] was 5.58 µM and the GI50 [56] was 13.2 µM. For the same molecule, the TGI [56] was 26.7 µM, the GI50 [57] was 1.43 µM and the TGI [57] was 3.36 µM.

Molecule `C=C(C)[C@@H]1CC[C@]2(COS(C)(=O)=O)CC[C@]3(C)[C@H](CC[C@@H]4[C@@]5(C)CCCNC(C)(C)[C@@H]5CC[C@]43C)[C@@H]12` has a GI50 [2] of 1.77 µM, a TGI [2] of 3.73 µM and a GI50 [3] of 1.99 µM. For the same molecule, the TGI [3] was 4.27 µM, the GI50 [4] was 1.27 µM and the TGI [4] was 2.63 µM. It also gave a GI50 [5] of 1.77 µM, a TGI [5] of 3.57 µM and a GI50 [6] of 1.16 µM. The TGI [6] was 3.06 µM, the GI50 [7] was 1.8 µM and the TGI [7] was 3.31 µM. For the same molecule, the GI50 [8] was 1.8 µM, the TGI [8] was 3.27 µM and the GI50 [9] was 1.83 µM. It also gave a TGI [9] of 3.39 µM, a GI50 [10] of 1.68 µM and a TGI [10] of 3.34 µM. It also gave a GI50 [11] of 1.79 µM, a TGI [11] of 3.22 µM and a GI50 [12] of 1.74 µM. For the same molecule, the TGI [12] was 3.16 µM, the GI50 [13] was 1.75 µM and the TGI [13] was 3.28 µM. It also gave a GI50 [14] of 1.76 µM, a TGI [14] of 4.42 µM and a GI50 [15] of 1.73 µM. The TGI [15] was 3.27 µM, the GI50 [16] was 1.67 µM and the TGI [16] was 3.19 µM. It also gave a GI50 [17] of 1.82 µM, a TGI [17] of 3.65 µM and a GI50 [18] of 1.69 µM. It also gave a TGI [18] of 3.54 µM, a GI50 [19] of 1.64 µM and a TGI [19] of 3.04 µM. For the same molecule, the GI50 [20] was 1.83 µM, the TGI [20] was 3.55 µM and the GI50 [21] was 1.09 µM. It also gave a TGI [21] of 2.37 µM, a GI50 [22] of 1.66 µM and a TGI [22] of 3.08 µM. The GI50 [23] was 1.93 µM, the TGI [23] was 3.77 µM and the GI50 [58] was 1.59 µM. The TGI [58] was 3.5 µM, the GI50 [24] was 1.56 µM and the TGI [24] was 3.52 µM. It also gave a GI50 [25] of 1.58 µM, a TGI [25] of 3.14 µM and a GI50 [26] of 1.73 µM. It also gave a TGI [26] of 3.13 µM, a GI50 [27] of 1.68 µM and a TGI [27] of 3.1 µM. The GI50 [28] was 1.77 µM, the TGI [28] was 3.4 µM and the GI50 [29] was 1.37 µM. It also gave a TGI [29] of 3.08 µM, a GI50 [30] of 1.65 µM and a TGI [30] of 3.62 µM. For the same molecule, the GI50 [31] was 1.59 µM, the TGI [31] was 3.43 µM and the GI50 [32] was 1.75 µM. The TGI [32] was 3.29 µM, the GI50 [33] was 1.8 µM and the TGI [33] was 3.49 µM. For the same molecule, the GI50 [34] was 1.81 µM, the TGI [34] was 3.29 µM and the GI50 [35] was 1.68 µM. It also gave a TGI [35] of 3.58 µM, a GI50 [36] of 1.67 µM and a TGI [36] of 3.21 µM. For the same molecule, the GI50 [37] was 2.05 µM, the TGI [37] was 4.62 µM and the GI50 [38] was 1.85 µM. For the same molecule, the TGI [38] was 3.92 µM, the GI50 [39] was 1.72 µM and the TGI [39] was 3.24 µM. The GI50 [40] was 1.72 µM, the TGI [40] was 3.27 µM and the GI50 [41] was 1.68 µM. For the same molecule, the TGI [41] was 3.34 µM, the GI50 [42] was 1.78 µM and the TGI [42] was 3.47 µM. For the same molecule, the GI50 [43] was 1.82 µM, the TGI [43] was 3.33 µM and the GI50 [44] was 1.78 µM. It also gave a TGI [44] of 4 µM, a GI50 [45] of 1.62 µM and a TGI [45] of 3.39 µM. It also gave a GI50 [46] of 1.99 µM, a TGI [46] of 4.08 µM and a GI50 [47] of 1.66 µM. It also gave a TGI [47] of 3.08 µM, a GI50 [48] of 1.72 µM and a TGI [48] of 3.14 µM. The GI50 [49] was 1.3 µM, the TGI [49] was 2.81 µM and the GI50 [50] was 2.28 µM. It also gave a TGI [50] of 5.48 µM, a GI50 [51] of 2.61 µM and a TGI [51] of 6.49 µM. The GI50 [52] was 1.81 µM, the TGI [52] was 3.2 µM and the GI50 [53] was 1.82 µM. For the same molecule, the TGI [53] was 3.63 µM, the GI50 [54] was 1.82 µM and the TGI [54] was 6.16 µM. For the same molecule, the GI50 [55] was 1.7 µM, the TGI [55] was 3.22 µM and the GI50 [56] was 6.44 µM. For the same molecule, the TGI [56] was 19.6 µM, the GI50 [57] was 1.57 µM and the TGI [57] was 3.06 µM.

From PubChem BioAssay (NCI)
